Experimental data as given in EP0041644B1 (priority 1980, dated 1981).

How the values were obtained:
Type in all cases: in vivo, mice
L1210 Leukemia = L1210 Leukemia - Test 2
B16 Melanoma [1] = assay: B16 Melanoma - Test 1 (ip tumor brei); settings: for Av. Wt. Change, g Day 5 / Effect MST % T/C / MST Days / Survivors Day 5(60): QD 1→9, vehicle Saline
B16 Melanoma [2] = assay: B16 Melanoma - Test 2 (ip tumor brei); settings: 0.4 mg/kg/day ip, QD +9

SMILES: N.N.[Cl][Pt][Cl] [Cis-DDP, cis-diammine dichloroplatinum (II)]
- Average Weight Change,g (L1210 Leukemia; 0.4 mg/kg/inj ip, qd 1→9): +1.6 g
- Effect MST % T/C (L1210 Leukemia; 0.4 mg/kg/inj ip, qd 1→9): 100 % T/C
- MST Days (L1210 Leukemia; 0.4 mg/kg/inj ip, qd 1→9): 7.0 days
- Survivors Day 5(30) (L1210 Leukemia; 0.4 mg/kg/inj ip, qd 1→9): 6/6
- Average Weight Change (L1210 Leukemia; 0.8 mg/kg/inj ip, qd 1→9): -0.7 g
- Effect MST % T/C (L1210 Leukemia; 0.8 mg/kg/inj ip, qd 1→9): 107 % T/C
- MST Days (L1210 Leukemia; 0.8 mg/kg/inj ip, qd 1→9): 7.5 days
- Survivors Day 5(30) (L1210 Leukemia; 0.8 mg/kg/inj ip, qd 1→9): 6/6
- Average Weight Change (L1210 Leukemia; 1.6 mg/kg/inj ip, qd 1→9): -2.2 g
- Effect MST % T/C (L1210 Leukemia; 1.6 mg/kg/inj ip, qd 1→9): 157 % T/C
- MST Days (L1210 Leukemia; 1.6 mg/kg/inj ip, qd 1→9): 11.0 days
- Survivors Day 5(30) (L1210 Leukemia; 1.6 mg/kg/inj ip, qd 1→9): 6/6
- Average Weight Change,g (L1210 Leukemia; 2 mg/kg/inj iv, d.1, 5 & 9): +1.7 g
- Effect MST % T/C (L1210 Leukemia; 2 mg/kg/inj iv, d.1, 5 & 9): 100 % T/C
- MST Days (L1210 Leukemia; 2 mg/kg/inj iv, d.1, 5 & 9): 7.0 days
- Survivors Day 5(30) (L1210 Leukemia; 2 mg/kg/inj iv, d.1, 5 & 9): 6/6
- Average Weight Change (L1210 Leukemia; 2.4 mg/kg/inj ip, qd 1→9): -3.3 g
- Effect MST % T/C (L1210 Leukemia; 2.4 mg/kg/inj ip, qd 1→9): 214 % T/C
- MST Days (L1210 Leukemia; 2.4 mg/kg/inj ip, qd 1→9): 15.0 days
- Survivors Day 5(30) (L1210 Leukemia; 2.4 mg/kg/inj ip, qd 1→9): 6/6
- Average Weight Change (L1210 Leukemia; 4 mg/kg/inj ip, d.1): -0.7 g
- Effect MST % T/C (L1210 Leukemia; 4 mg/kg/inj ip, d.1): 136 % T/C
- MST Days (L1210 Leukemia; 4 mg/kg/inj ip, d.1): 9.5 days
- Survivors Day 5(30) (L1210 Leukemia; 4 mg/kg/inj ip, d.1): 6/6
- Average Weight Change,g (L1210 Leukemia; 4 mg/kg/inj iv, d.1): +1.8 g
- Effect MST % T/C (L1210 Leukemia; 4 mg/kg/inj iv, d.1): 100 % T/C
- MST Days (L1210 Leukemia; 4 mg/kg/inj iv, d.1): 7.0 days
- Survivors Day 5(30) (L1210 Leukemia; 4 mg/kg/inj iv, d.1): 6/6
- Average Weight Change,g (L1210 Leukemia; 4 mg/kg/inj iv, d.1, 5 & 9): +0.8 g
- Effect MST % T/C (L1210 Leukemia; 4 mg/kg/inj iv, d.1, 5 & 9): 100 % T/C
- MST Days (L1210 Leukemia; 4 mg/kg/inj iv, d.1, 5 & 9): 7.0 days
- Survivors Day 5(30) (L1210 Leukemia; 4 mg/kg/inj iv, d.1, 5 & 9): 6/6
- Average Weight Change (L1210 Leukemia; 6 mg/kg/inj ip, d.1): -1.8 g
- Effect MST % T/C (L1210 Leukemia; 6 mg/kg/inj ip, d.1): 171 % T/C
- MST Days (L1210 Leukemia; 6 mg/kg/inj ip, d.1): 12.0 days
- Survivors Day 5(30) (L1210 Leukemia; 6 mg/kg/inj ip, d.1): 6/6
- Average Weight Change (L1210 Leukemia; 6 mg/kg/inj iv, d.1): -0.2 g
- Effect MST % T/C (L1210 Leukemia; 6 mg/kg/inj iv, d.1): 114 % T/C
- MST Days (L1210 Leukemia; 6 mg/kg/inj iv, d.1): 8.0 days
- Survivors Day 5(30) (L1210 Leukemia; 6 mg/kg/inj iv, d.1): 6/6
- Average Weight Change (L1210 Leukemia; 6 mg/kg/inj iv, d.1, 5 & 9): -1.1 g
- Effect MST % T/C (L1210 Leukemia; 6 mg/kg/inj iv, d.1, 5 & 9): 164 % T/C
- MST Days (L1210 Leukemia; 6 mg/kg/inj iv, d.1, 5 & 9): 11.5 days
- Survivors Day 5(30) (L1210 Leukemia; 6 mg/kg/inj iv, d.1, 5 & 9): 6/6
- Average Weight Change (L1210 Leukemia; 8 mg/kg/inj ip, d.1): -2.8 g
- Effect MST % T/C (L1210 Leukemia; 8 mg/kg/inj ip, d.1): 186 % T/C
- MST Days (L1210 Leukemia; 8 mg/kg/inj ip, d.1): 13.0 days
- Survivors Day 5(30) (L1210 Leukemia; 8 mg/kg/inj ip, d.1): 6/6
- Average Weight Change (L1210 Leukemia; 8 mg/kg/inj iv, d.1): -3.7 g
- Effect MST % T/C (L1210 Leukemia; 8 mg/kg/inj iv, d.1): 129 % T/C
- MST Days (L1210 Leukemia; 8 mg/kg/inj iv, d.1): 9.0 days
- Survivors Day 5(30) (L1210 Leukemia; 8 mg/kg/inj iv, d.1): 6/6
- Average Weight Change (L1210 Leukemia; 8 mg/kg/inj iv, d.1, 5 & 9): -2.1 g
- Effect MST % T/C (L1210 Leukemia; 8 mg/kg/inj iv, d.1, 5 & 9): 179 % T/C
- MST Days (L1210 Leukemia; 8 mg/kg/inj iv, d.1, 5 & 9): 12.5 days
- Survivors Day 5(30) (L1210 Leukemia; 8 mg/kg/inj iv, d.1, 5 & 9): 6/6
- Average Weight Change (L1210 Leukemia; 10 mg/kg/inj ip, d.1): -4.4 g
- Effect MST % T/C (L1210 Leukemia; 10 mg/kg/inj ip, d.1): 214 % T/C
- MST Days (L1210 Leukemia; 10 mg/kg/inj ip, d.1): 15.0 days
- Survivors Day 5(30) (L1210 Leukemia; 10 mg/kg/inj ip, d.1): 6/6
- Average Weight Change (L1210 Leukemia; 10 mg/kg/inj iv, d.1): -3.9 g
- Effect MST % T/C (L1210 Leukemia; 10 mg/kg/inj iv, d.1): 143 % T/C
- MST Days (L1210 Leukemia; 10 mg/kg/inj iv, d.1): 10.0 days
- Survivors Day 5(30) (L1210 Leukemia; 10 mg/kg/inj iv, d.1): 6/6
- maximum T/C (L1210 Leukemia; iv, multi-dose regimen): 179%
- maximum T/C (L1210 Leukemia; multi-dose therapy ip (qd 1→9)): 207-214%
- maximum T/C (L1210 Leukemia; single ip doses, ip L1210): 214%
- Av. Wt. Change, g Day 5 (B16 Melanoma [1]; 0.8 mg/kg/day ip): -1.0 g
- Effect MST % T/C (B16 Melanoma [1]; 0.8 mg/kg/day ip): 174 % T/C
- MST Days (B16 Melanoma [1]; 0.8 mg/kg/day ip): 34.0 days
- Av. Wt. Change, g Day 5 (B16 Melanoma [1]; 1.6 mg/kg/day ip): -4.3 g
- Effect MST % T/C (B16 Melanoma [1]; 1.6 mg/kg/day ip): 36 % T/C
- MST Days (B16 Melanoma [1]; 1.6 mg/kg/day ip): 7.0 days
- Av. Wt. Change, g Day 5 (B16 Melanoma [1]; 2.0 mg/kg/day ip): -4.5 g
- Effect MST % T/C (B16 Melanoma [1]; 2.0 mg/kg/day ip): 36 % T/C
- MST Days (B16 Melanoma [1]; 2.0 mg/kg/day ip): 7.0 days
- Survivors Day 5(60) (B16 Melanoma [1]; 0.8 mg/kg/day ip): 10/10
- Survivors Day 5(60) (B16 Melanoma [1]; 1.6 mg/kg/day ip): 9/9
- Survivors Day 5(60) (B16 Melanoma [1]; 2.0 mg/kg/day ip): 8/10
- mice cured (B16 Melanoma [1]; ip B16, at the dose of maximum T/C): no cures
- maximum T/C (B16 Melanoma [1]; ip B16, ip QD 1→9): 174%
- Average Weight Change (B16 Melanoma [2]): -2.0 g
